Measured values reported in patent publication US20240167922A1, “TRANSPARENTIZING REAGENT AND TRANSPARENTIZING METHOD” (KYOTO UNIVERSITY, priority 2021, published 2024).

What was measured:
[1] = Test for decolorizing agent (opacity); conditions: pasta immersed in the agent 5 days, then SoROCS 3 days; mean±SD of three experiments; water control 1.079±0.002
Procedure: Pasta samples made from durum wheat were fixed in 4% (wt/wt) PFA/PBS at 30° C. for 1.5 hours, and washed twice in D-PBS. […] Values represent mean ±SD of three independent experiments.

[2] = Measurement of opacity of noodle samples after optical clearing; conditions: Example 6: 3M to 4M aqueous solutions, 30° C. for 3 days after fixation
Procedure: ClearSee was prepared by mixing xylitol powder [Nacalai tesque, 36718-65; final concentration 10% (wt/vol)], sodium deoxycholate [Nacalai tesque, 10712-96; final concentration 15% (wt/vol)], and urea [Nacalai tesque, 35905-35; final concentration 25% (wt/vol)] in Milli-Q water.
The opacity of the samples was determined using a cooled CCD camera system (GE Healthcare, ImageQuant LAS 4000). […] Then, the sample was digitised by the CCD camera which was cooled to −25° C. with a lens (F0.85 43 mm) using white transillumination. […] The opacity of the sample was calculated by normalising the gray value of the sample with that of the background using free software (Fiji). The contrast C, which represents the difference in gray level, was calculated according to the following equation (1) from an image of the samples laid with a film on which a grid pattern was printed. The plot profile was measured using Fiji software.
ClearSee is a reagent that is able to make plant samples transparent as described in Non-patent Literature 1, and aims to remove autofluorescence of chlorophyll from green leaves. To evaluate the transparency of the noodle samples, the opacity of the transmitted light image was quantified.
The noodle samples were fixed and then immersed in each clearing reagent at 30° C. for 3 days, and the opacity was measured. As controls, the opacity of the noodle sample just after fixation and the noodle sample immersed in D-PBS instead of the clearing reagent was measured. […] Values in the figure represent mean±SD of three independent experiments.

[3] = Test for defatting agent (opacity); conditions: fried noodles immersed in the agent 5 days, then SoROCS 3 days; mean±SD of three experiments; water control 1.120±0.006
Procedure: Wheat noodle samples fried in vegetable oil were fixed in 4% (wt/wt) PFA/PBS at 30° C. for 1.5 hours and washed twice in D-PBS. […] Values represent mean ±SD of three independent experiments.

[4] = water at 20° C.; cited from earlier work

Row | SMILES | optical clearing of noodle samples [2] | also measured
1 | CCCCC(O)CO (stereo not shown) [1,2-hexanediol] |  | opacity [1]: 1.041±0.002
2 | Oc1ccccc1O [catechol] | cleared | 
3 | O=C([O-])c1ccccc1C(=O)[O-].[Na+].[Na+] [disodium phthalate] | cleared | 
4 | C=C(C)[C@H]1CC=C(C)CC1 [limonene] |  | opacity [3]: 1.089±0.004
5 | O=C([O-])c1ccccc1O.[Li+] [lithium salicylate] | cleared | 
6 | Oc1cccc(O)c1O [pyrogallol] | cleared | 
7 | Oc1cccc(O)c1 [resorcinol] | cleared | 
8 | O=C([O-])c1cccc(O)c1.[Na+] [sodium 3-hydroxybenzoate] | cleared | 
9 | O=C([O-])c1ccc(O)cc1.[Na+] [sodium 4-hydroxybenzoate] | cleared | 
10 | O=C([O-])c1ccccc1O.[Na+] [sodium salicylate] |  | solubility in water [4]: about 4.125 M
